Measurements reported in article PMC4519236 (Bioorganic & medicinal chemistry, 2013).
“Also recorded” adds a separate entry of the source. One block for each molecule: values may come before it.

Assays:
[1] = molecular target: α4β2* nAChR (Rattus norvegicus, UniProt P09483+P12390); assay: Radioligand binding assay, α4β2* nAChR
[2] = molecular target: α4β2* nAChR (Homo sapiens, UniProt P17787+P43681); assay: Electrophysiology, α4β2* nAChR expressed in Xenopus oocytes; format: cell-based; details: 1 or 10 μM; co-applied at 1 μM with ACh; relative to ACh control
[3] = molecular target: α3β4* nAChR (Homo sapiens, UniProt P30926+P32297); assay: Electrophysiology, α3β4* nAChR expressed in Xenopus oocytes; format: cell-based; details: 1 or 10 μM; co-applied at 1 μM with ACh; relative to ACh control
[4] = molecular target: (α1)2β1γδ nAChR (Tetronarce californica, UniProt P02710+P02714+P02718); assay: Radioligand binding assay, muscle type
[5] = molecular target: α7* nAChR (Rattus norvegicus, UniProt Q05941); assay: Radioligand binding assay, α7* nAChR
[6] = test system: α3β4* nAChR; assay: Radioligand binding assay, α3β4* nAChR
[7] = test system: mouse model; details: ref [26]; cited from earlier work
[8] = molecular target: muscle subtype nAChR (Homo sapiens, UniProt P02708+Q07001); assay: Electrophysiology, muscle subtype nAChR expressed in Xenopus oocytes; format: cell-based; details: 1 or 10 μM; co-applied at 1 μM with ACh; relative to ACh control
[9] = relative to vinyl spacer analog 26

Sequence of α4β2* nAChR (Homo sapiens, UniProt P17787+P43681) (P43681 29-627 limits assumed): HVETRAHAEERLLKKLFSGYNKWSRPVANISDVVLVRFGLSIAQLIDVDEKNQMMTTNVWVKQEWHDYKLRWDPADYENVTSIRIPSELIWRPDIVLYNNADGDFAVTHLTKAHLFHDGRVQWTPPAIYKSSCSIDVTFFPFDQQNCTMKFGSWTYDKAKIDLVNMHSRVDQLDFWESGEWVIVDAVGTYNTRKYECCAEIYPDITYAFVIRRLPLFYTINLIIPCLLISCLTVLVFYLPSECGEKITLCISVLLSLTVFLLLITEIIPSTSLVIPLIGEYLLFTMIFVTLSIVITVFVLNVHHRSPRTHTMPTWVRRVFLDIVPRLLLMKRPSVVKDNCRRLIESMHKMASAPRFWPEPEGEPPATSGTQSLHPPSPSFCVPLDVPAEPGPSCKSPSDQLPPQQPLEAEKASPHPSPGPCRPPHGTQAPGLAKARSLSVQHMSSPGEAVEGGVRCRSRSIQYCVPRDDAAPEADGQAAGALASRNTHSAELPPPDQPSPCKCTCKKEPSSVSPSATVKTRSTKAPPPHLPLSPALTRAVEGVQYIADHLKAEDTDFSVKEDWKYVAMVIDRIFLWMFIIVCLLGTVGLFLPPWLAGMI
Sequence of α4β2* nAChR (Homo sapiens, UniProt P17787+P43681) (P17787 26-502): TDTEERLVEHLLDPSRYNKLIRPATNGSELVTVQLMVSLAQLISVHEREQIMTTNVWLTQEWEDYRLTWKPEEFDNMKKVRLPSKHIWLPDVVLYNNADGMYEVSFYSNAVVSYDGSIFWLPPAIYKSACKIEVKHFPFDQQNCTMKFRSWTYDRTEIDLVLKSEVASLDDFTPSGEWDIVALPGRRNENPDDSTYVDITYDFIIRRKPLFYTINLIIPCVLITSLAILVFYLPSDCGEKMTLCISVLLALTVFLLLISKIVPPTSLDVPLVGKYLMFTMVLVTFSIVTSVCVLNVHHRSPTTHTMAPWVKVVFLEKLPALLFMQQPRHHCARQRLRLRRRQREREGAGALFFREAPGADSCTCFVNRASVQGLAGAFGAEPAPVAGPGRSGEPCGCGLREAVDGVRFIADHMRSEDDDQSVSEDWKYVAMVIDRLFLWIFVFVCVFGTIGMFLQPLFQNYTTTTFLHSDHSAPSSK
Sequence of α4β2* nAChR (Rattus norvegicus, UniProt P09483+P12390) (P09483 31-630): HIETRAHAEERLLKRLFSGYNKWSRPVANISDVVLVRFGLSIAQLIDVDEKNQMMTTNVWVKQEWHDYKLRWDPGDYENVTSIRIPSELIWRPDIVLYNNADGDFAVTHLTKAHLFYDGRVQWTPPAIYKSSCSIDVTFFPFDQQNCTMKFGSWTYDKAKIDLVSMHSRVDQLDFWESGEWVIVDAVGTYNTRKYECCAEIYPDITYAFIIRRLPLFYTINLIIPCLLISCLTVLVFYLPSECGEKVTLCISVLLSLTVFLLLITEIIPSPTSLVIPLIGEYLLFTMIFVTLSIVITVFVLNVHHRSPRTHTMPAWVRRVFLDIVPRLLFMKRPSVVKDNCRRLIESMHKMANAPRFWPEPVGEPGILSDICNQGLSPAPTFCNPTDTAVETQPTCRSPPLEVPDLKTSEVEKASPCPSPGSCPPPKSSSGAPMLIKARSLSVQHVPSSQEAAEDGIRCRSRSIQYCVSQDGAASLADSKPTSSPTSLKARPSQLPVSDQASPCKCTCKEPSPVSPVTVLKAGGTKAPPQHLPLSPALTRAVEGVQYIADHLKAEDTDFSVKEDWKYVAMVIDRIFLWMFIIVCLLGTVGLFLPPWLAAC
Sequence of α4β2* nAChR (Rattus norvegicus, UniProt P09483+P12390) (P12390 25-500): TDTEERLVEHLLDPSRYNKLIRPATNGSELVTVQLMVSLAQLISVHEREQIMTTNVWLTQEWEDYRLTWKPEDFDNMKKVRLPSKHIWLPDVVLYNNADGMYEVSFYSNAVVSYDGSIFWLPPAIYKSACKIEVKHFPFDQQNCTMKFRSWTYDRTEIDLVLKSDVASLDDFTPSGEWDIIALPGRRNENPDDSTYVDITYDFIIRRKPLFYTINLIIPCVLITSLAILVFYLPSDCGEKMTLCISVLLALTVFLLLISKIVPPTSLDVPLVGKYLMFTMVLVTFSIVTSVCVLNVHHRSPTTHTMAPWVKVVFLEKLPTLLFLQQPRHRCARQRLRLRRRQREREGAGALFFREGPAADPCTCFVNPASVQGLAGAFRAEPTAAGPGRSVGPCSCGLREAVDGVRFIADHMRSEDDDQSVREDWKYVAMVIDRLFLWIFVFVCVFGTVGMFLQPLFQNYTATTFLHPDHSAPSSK
Sequence of α7* nAChR (Q05941 23-502): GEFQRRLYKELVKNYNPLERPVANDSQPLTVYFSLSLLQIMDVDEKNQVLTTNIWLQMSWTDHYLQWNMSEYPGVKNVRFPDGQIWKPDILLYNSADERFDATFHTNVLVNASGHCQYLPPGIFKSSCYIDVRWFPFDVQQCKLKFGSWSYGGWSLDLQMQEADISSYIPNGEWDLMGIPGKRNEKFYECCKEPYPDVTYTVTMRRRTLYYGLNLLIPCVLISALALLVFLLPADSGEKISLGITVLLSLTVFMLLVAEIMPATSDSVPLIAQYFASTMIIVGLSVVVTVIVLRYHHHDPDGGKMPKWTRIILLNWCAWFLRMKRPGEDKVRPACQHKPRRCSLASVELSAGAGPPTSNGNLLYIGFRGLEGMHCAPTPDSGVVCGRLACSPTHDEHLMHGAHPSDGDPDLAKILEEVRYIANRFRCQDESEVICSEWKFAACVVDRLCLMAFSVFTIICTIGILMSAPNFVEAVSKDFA
Sequence of α3β4* nAChR (Homo sapiens, UniProt P30926+P32297) (P32297 32-505): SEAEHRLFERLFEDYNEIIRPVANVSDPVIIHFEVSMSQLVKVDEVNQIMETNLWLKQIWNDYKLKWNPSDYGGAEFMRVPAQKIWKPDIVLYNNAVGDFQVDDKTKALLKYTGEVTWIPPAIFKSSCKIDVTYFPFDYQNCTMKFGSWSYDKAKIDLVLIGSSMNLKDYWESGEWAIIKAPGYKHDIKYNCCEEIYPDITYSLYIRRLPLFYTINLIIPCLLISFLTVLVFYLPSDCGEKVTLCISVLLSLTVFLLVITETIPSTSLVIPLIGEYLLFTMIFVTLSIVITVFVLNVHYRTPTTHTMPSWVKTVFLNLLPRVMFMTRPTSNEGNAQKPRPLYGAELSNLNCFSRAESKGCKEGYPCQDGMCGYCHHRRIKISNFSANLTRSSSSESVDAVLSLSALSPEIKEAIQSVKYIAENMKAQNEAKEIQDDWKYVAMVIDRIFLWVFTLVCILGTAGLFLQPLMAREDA
Sequence of α3β4* nAChR (Homo sapiens, UniProt P30926+P32297) (P30926 22-498): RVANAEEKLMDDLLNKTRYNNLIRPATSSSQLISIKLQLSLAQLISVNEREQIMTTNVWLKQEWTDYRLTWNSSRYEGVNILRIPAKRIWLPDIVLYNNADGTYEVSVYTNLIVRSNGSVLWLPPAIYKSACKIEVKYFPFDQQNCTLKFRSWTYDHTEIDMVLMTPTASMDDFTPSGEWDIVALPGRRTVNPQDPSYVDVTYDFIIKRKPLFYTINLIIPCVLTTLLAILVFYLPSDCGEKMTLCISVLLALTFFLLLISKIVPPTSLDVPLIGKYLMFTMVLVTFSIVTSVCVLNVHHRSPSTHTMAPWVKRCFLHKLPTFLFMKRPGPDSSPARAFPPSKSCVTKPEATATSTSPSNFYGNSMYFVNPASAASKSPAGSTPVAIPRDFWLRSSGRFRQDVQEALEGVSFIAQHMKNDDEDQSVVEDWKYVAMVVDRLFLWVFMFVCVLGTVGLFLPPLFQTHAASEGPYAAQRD
Sequence of muscle subtype nAChR (P02708 21-457): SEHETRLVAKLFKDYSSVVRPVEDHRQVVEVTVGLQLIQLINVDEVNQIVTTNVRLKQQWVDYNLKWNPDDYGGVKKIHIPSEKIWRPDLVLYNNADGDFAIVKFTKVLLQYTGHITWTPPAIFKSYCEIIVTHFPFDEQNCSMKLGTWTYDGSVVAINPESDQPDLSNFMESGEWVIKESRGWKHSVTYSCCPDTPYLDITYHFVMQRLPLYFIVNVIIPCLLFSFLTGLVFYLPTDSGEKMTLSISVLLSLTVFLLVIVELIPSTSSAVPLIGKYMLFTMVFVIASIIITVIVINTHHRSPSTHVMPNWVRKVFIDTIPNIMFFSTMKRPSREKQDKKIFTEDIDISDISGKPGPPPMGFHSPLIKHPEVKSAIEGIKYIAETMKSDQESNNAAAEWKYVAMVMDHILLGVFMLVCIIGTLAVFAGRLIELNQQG
Sequence of muscle subtype nAChR (P11230 24-501 partner): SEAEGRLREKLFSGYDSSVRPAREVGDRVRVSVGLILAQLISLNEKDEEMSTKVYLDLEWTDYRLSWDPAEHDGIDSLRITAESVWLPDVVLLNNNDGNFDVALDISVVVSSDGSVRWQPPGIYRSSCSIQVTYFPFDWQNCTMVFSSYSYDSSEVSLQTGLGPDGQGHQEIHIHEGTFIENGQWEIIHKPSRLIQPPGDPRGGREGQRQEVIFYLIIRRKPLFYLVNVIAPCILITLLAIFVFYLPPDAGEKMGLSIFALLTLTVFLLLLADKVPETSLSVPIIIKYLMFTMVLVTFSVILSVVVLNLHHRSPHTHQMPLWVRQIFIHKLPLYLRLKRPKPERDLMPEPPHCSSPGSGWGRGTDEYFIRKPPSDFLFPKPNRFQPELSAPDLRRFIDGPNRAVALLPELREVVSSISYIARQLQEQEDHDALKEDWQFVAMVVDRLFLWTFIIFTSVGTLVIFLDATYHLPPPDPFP
Sequence of muscle subtype nAChR (Q07001 22-517): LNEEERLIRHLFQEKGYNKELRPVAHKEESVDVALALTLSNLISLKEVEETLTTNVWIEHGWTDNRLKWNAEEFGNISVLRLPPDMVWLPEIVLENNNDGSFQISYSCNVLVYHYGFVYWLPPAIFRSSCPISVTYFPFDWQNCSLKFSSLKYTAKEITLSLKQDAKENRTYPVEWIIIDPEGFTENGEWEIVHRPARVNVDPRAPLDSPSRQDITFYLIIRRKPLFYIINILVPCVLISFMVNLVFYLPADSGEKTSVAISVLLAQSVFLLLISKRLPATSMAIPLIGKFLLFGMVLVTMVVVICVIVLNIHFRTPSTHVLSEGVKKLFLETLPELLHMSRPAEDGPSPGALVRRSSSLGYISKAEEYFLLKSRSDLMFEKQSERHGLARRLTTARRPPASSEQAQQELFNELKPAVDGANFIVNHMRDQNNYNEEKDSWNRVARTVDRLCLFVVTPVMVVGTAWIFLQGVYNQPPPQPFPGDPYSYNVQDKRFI

SMILES: O=c1c(-c2ccccc2)ccc2n1C[C@@H]1CNC[C@H]2C1 [Compound 4, 9-phenyl-1,2,3,4,5,6-hexahydro-1,5-methano-pyridino[1,2-a]diazocin-8-one]
α4β2* affinity lower than cytisine 1 ([1]; relative to cytisine 1): about 1000 times

functional effect at α4β2* [2]: strongest antagonistic effects | Ki [1]: ~1 nM
SMILES: O=C([C@@H]1C[C@H]1c1ccccc1)N1C[C@@H]2CNC[C@@H](C2)C1 [Compound 15, (1R,5S)-3,7-diazabicyclo[3.3.1]nonan-3-yl((1R,2R)-2-phenylcyclopropyl)methanone]
functional effect at α3β4* [3]: agonist; also recorded: most potent agonist

SMILES: O=C(/C=C/c1ccccc1)N1C[C@@H]2CNC[C@@H](C2)C1 [Compound 16, (E)-1-((1R,5S)-3,7-diazabicyclo[3.3.1]nonan-3-yl)-3-phenylprop-2-en-1-one]
affinity for (α1)2β1γδ nAChR, in words [4]: lacked affinity | affinity for α7* nAChR, in words [5]: lacked affinity | affinity for α3β4* nAChR, in words [6]: lacked affinity

SMILES: O=C(Cc1ccccc1)N1C[C@@H]2CNC[C@@H](C2)C1 [Compound 30, 1-((1R,5S)-3,7-diazabicyclo[3.3.1]nonan-3-yl)-2-phenylethanone]
increase of α4β2* affinity ([1]; relative to compound 29): about 8 fold

affinity for α7* nAChR, in words [5]: no affinity
SMILES: O=C(CCc1ccccc1)N1C[C@@H]2CNC[C@@H](C2)C1 [Compound 32, 1-((1R,5S)-3,7-diazabicyclo[3.3.1]nonan-3-yl)-3-phenylpropan-1-one]

affinity for α4β2* / nAChRs tested, in words [1]: failed to interact
SMILES: O=C(Cc1c(F)c(F)c(F)c(F)c1F)N1C[C@@H]2CNC[C@@H](C2)C1 [Compound 34, 1-((1R,5S)-3,7-diazabicyclo[3.3.1]nonan-3-yl)-2-(2,3,4,5,6-pentafluorophenyl)ethanone]

functional effect at α4β2* [2]: strongest antagonistic effects
SMILES: CS(=O)(=O)c1ccc(CC(=O)N2C[C@@H]3CNC[C@@H](C3)C2)cc1 [Compound 35, 1-((1R,5S)-3,7-diazabicyclo[3.3.1]nonan-3-yl)-2-(4-(methylsulfonyl)phenyl)ethanone]
in vivo activity in a mouse model [7]: antidepressive effect

SMILES: O=C(C#Cc1ccccc1)N1C[C@@H]2CNC[C@@H](C2)C1 [Compound 42]
higher affinity for α4β2* ([1]; relative to analogs 32 and 16): 5 times

functional effect at α4β2* [2]: strongest antagonistic effects | higher affinity for α4β2* [1, 9]: ~10 fold | functional effect at muscle subtype [8]: some antagonistic effect
SMILES: COc1ccc(C#CC(=O)N2C[C@@H]3CNC[C@@H](C3)C2)cc1OC [Compound 46, 1-((1R,5S)-3,7-diazabicyclo[3.3.1]nonan-3-yl)-3-(3,4-dimethoxyphenyl)prop-2-yn-1-one]

functional effect at α4β2* [2]: strongest antagonistic effects
SMILES: COc1ccc(C#CC(=O)N2C[C@@H]3CNC[C@@H](C3)C2)cc1Cl [Compound 47, 1-((1R,5S)-3,7-diazabicyclo[3.3.1]nonan-3-yl)-3-(3-chloro-4-methoxyphenyl)prop-2-yn-1-one]

functional effect at α4β2* [2]: strongest antagonistic effects | higher affinity for α4β2* [1, 9]: ~10 fold
SMILES: O=C(C#Cc1ccc2c(c1)OCO2)N1C[C@@H]2CNC[C@@H](C2)C1 [Compound 50, 1-((1R,5S)-3,7-diazabicyclo[3.3.1]nonan-3-yl)-3-(benzo[d][1,3]dioxol-5-yl)prop-2-yn-1-one]

SMILES: O=C(c1ccc(-c2cccnc2)cc1)N1C[C@@H]2CNC[C@@H](C2)C1 [Compound 52, (1R,5S)-3,7-diazabicyclo[3.3.1]nonan-3-yl(4-(pyridin-3-yl)phenyl)methanone]
functional effect at α4β2* [2]: strongest antagonistic effects

SMILES: O=C(c1ccc(-c2ccncc2)cc1)N1C[C@@H]2CNC[C@@H](C2)C1 [Compound 53, (1R,5S)-3,7-diazabicyclo[3.3.1]nonan-3-yl(4-(pyridin-4-yl)phenyl)methanone]
functional effect at α4β2* [2]: strongest antagonistic effects

functional effect at α4β2* [2]: strongest antagonistic effects
SMILES: O=C(c1ccc(-n2ccnc2)cc1)N1C[C@@H]2CNC[C@@H](C2)C1 [Compound 54, (4-(1H-imidazol-1-yl)phenyl)((1R,5S)-3,7-diazabicyclo[3.3.1]nonan-3-yl)methanone]

SMILES: O=C(c1csc(-c2ccncc2)n1)N1C[C@@H]2CNC[C@@H](C2)C1 [Compound 55, (1R,5S)-3,7-diazabicyclo[3.3.1]nonan-3-yl(2-(pyridine-4-yl)thiazol-4-yl)methanone]
affinity for α4β2* / nAChRs tested, in words [1]: did not show any affinity
